Assay results published in patent US7038049B2, “Haloanilino quinazolines and therapeutic use thereof” (Parker Hughes Institute, priority 1999, dated 2006).

Experiments:
Format in all cases: cell-based
Settings in all cases: 24–36 hours
[1] = system: NALM-6 human leukemia cells; experiment: MTT cytotoxicity assay, NALM-6
Method: (§1) The cytotoxicity assay of various compounds against human tumor cell lines was performed using the MTT (3-[4,5-dimethylthiazol-2-yl]-2,5-diphenyl tetrazolium bromide) assay (Boehringer Mannheim Corp., Indianapolis, Ind.). Briefly, exponentially growing tumor cells were seeded into a 96-well plate at a density of 2.5×10^4 cells/well and incubated for 36 hours at 37° C. prior to drug exposure. On the day of treatment, culture medium was carefully aspirated from the wells and replaced with fresh medium containing the quinazoline compounds at concentrations ranging from 0.1 to 250 μM. Triplicate wells were used for each treatment.
(§2) Human cell lines were obtained from American Type Culture Collection (Rockville, Md.) and maintained as a continuous cell line in Dulbecco's modified Eagles' medium supplemented with 10% fetal bovine serum and antibiotics. Cells used in this study include human leukemia cells (NALM-6 and MOLT-3), human breast cancer cells ([…]), human prostate cancer cells (PC3), and human brain tumor cells (U373).
(§3) The cells were incubated with the various compounds for 24–36 hours at 37° C. in a humidified 5% CO2 atmosphere. To each well, 10 μl of MTT (0.5 mg/ml final concentration) was added and the plates were incubated at 37° C. for 4 hours to allow MTT to form formazan crystals by reacting with metabolically active cells. The formazan crystals were solubilized overnight at 37° C. in a solution containing 10% SDS in 0.01 M HCl. The absorbance of each well was measured in a microplate reader (Labsystems) at 540 nm and a reference wavelength of 690 nm. To translate the OD 540 values into the number of live cells in each well, the OD 540 values were compared to those on standard OD 540—versus—cell number curves generated for each cell line. The percent survival was calculated using the formula:
(§4) [formula] The IC50 values were calculated by non-linear regression analysis. Detection of Apoptosis

[2] = system: MOLT-3 human leukemia cells; experiment: MTT cytotoxicity assay, MOLT-3
Method: as §1, §2, §3, §4

[3] = system: BT20 human breast cancer cells; experiment: MTT cytotoxicity assay, BT20
Method: as §1, §2, §3, §4

[4] = system: U373 human brain tumor cells; experiment: MTT cytotoxicity assay, U373
Method: as §1, §2, §3, §4

[5] = Homo sapiens, NALM-6, Table 3, iodide substituted
[6] = Homo sapiens, NALM-6, Table 4, OH substituted
[7] = Homo sapiens, MOLT-3, Table 3, iodide substituted
[8] = Homo sapiens, MOLT-3, Table 4, OH substituted
[9] = Homo sapiens, BT-20, Table 3, iodide substituted
[10] = Homo sapiens, BT-20, Table 4, OH substituted
[11] = Homo sapiens, U373 MG, Table 3, iodide substituted
[12] = Homo sapiens, NALM-6, Table 1, bromo substituted
[13] = Homo sapiens, MOLT-3, Table 1, bromo substituted
[14] = Homo sapiens, BT-20, Table 1, bromo substituted
[15] = Homo sapiens, U373 MG, Table 4, OH substituted
[16] = Homo sapiens, NALM-6, Table 2, chloro substituted
[17] = Homo sapiens, MOLT-3, Table 2, chloro substituted
[18] = Homo sapiens, BT-20, Table 2, chloro substituted

COc1cc2ncnc(Nc3cc(I)c(O)c(I)c3)c2cc1OC [HI-P294, 4-(4′-Hydroxy-3,5-diiodophenyl)-amino-6,7-dimethoxy-quinazoline]
IC50 [1, 5]: > 250 µM
IC50 [1, 6]: > 250 µM
IC50 [2, 7]: > 250 µM
IC50 [2, 8]: > 250 µM
IC50 [3, 9]: > 250 µM
IC50 [3, 10]: > 250 µM
IC50 [4, 11]: > 250 µM
IC50 ([4]; Table 4, OH substituted): > 250 µM

COc1cc2ncnc(C(=O)c3cccc(Br)c3)c2cc1OC [HI-P164, 4-(3′-Bromobenzoyl)-6,7-dimethoxyquinazoline]
IC50 [1, 12]: > 250 µM
IC50 [2, 13]: > 250 µM
IC50 [3, 14]: 39.2 µM

COc1cc2ncnc(Nc3ccc(O)c(Br)c3)c2cc1OC [HI-P154, 4-(3′-Bromo-4′-hydroxylphenyl)-amino-6,7-dimethoxyquinazoline]
IC50 [1, 12]: 12.5 µM
IC50 [2, 13]: 9.1 µM
IC50 [3, 14]: > 250 µM
IC50 ([3]; Table 4, OH substituted): > 250 µM

COc1cc2ncnc(Nc3ccc(O)cc3O)c2cc1OC [HI-P192, 4-(2′,4′-Dihydroxyphenyl)-amino-6,7-dimethoxyquinazoline]
IC50 [1, 6]: > 250 µM
IC50 [2, 8]: > 250 µM
IC50 [3, 10]: > 250 µM
IC50 [4, 15]: > 250 µM

COc1cc2ncnc(Nc3cc(Cl)c(O)c(Cl)c3)c2cc1OC [HI-P189, 4-(4′-Hydroxyl-3′,5′-dichlorophenyl)amino-6,7-dimethoxyquinazoline]
IC50 [1, 16]: > 250 µM
IC50 [1, 6]: > 250 µM
IC50 [2, 17]: > 250 µM
IC50 [2, 8]: > 250 µM
IC50 [3, 18]: > 250 µM
IC50 [3, 10]: > 250 µM
IC50 [4, 15]: > 250 µM

COc1cc2ncnc(Nc3ccc(C)c(Br)c3)c2cc1OC [HI-P111, 4-(3′-Bromo-4′-methylphenyl)-amino-6,7-dimethoxyquinazoline]
IC50 [1, 12]: 201 µM
IC50 [2, 13]: > 250 µM
IC50 [3, 14]: > 250 µM

COc1cc2ncnc(Nc3cccc(I)c3)c2cc1OC [HI-P271, 4-(3′-Iodophenyl)-amino-6,7-dimethoxyquinazoline]
IC50 [1, 5]: 6.1 µM
IC50 [2, 7]: 9.6 µM
IC50 [3, 9]: > 250 µM
IC50 [4, 11]: > 250 µM

COc1cc2ncnc(Nc3c(Br)cc(C)cc3Br)c2cc1OC [HI-P241, 4-(2′,6′-Dibromo-4′-methylphenyl)-amino-6,7-dimethoxyquinazoline]
IC50 [1, 12]: > 250 µM
IC50 [2, 13]: > 250 µM
IC50 [3, 14]: > 250 µM

COc1cc2ncnc(Nc3ccc(Br)cc3C(=O)O)c2cc1OC [HI-P88, 4-(4′-Bromo-2′-caboxylphenyl)-amino-6,7-dimethoxyquinazoline]
IC50 [1, 12]: > 250 µM
IC50 [2, 13]: > 250 µM
IC50 [3, 14]: > 250 µM

COc1cc2ncnc(Nc3cccc(Br)c3)c2cc1OC [HI-P79, 4-(3′-Bromophenyl)-amino-6,7-dimethoxyquinazoline]
IC50 [1, 12]: 142 µM
IC50 [2, 13]: 195 µM
IC50 [3, 14]: 202 µM

COc1cc2ncnc(Nc3ccc(Cl)c4ccccc34)c2cc1OC [HI-P415, 4-(4′-Chloronaphthy-1′)-amino-6,7-dimethoxyquinazoline]
IC50 [1, 16]: 67.9 µM
IC50 [2, 17]: > 250 µM
IC50 [3, 18]: 38.1 µM

COc1cc2ncnc(Nc3ccccc3)c2cc1OC [HI-P258]
IC50 [1, 12]: > 250 µM
IC50 [2, 13]: > 250 µM
IC50 [3, 14]: > 250 µM

COc1cc2ncnc(Nc3ccc(I)cc3)c2cc1OC [HI-P300, 4-(4′-Iodophenyl)-amino-6,7-dimethoxyquinazoline]
IC50 [1, 5]: 58 µM
IC50 [2, 7]: 59.1 µM
IC50 [3, 9]: 72.6 µM
IC50 [4, 11]: 116 µM

COc1cc2ncnc(Nc3ccccc3Br)c2cc1OC [HI-P261, 4-(2′-Bromophenyl)-amino-6,7-dimethoxyquinazoline]
IC50 [1, 12]: 72.6 µM
IC50 [2, 13]: 148 µM
IC50 [3, 14]: 219 µM

COc1cc2ncnc(Nc3c(Br)cccc3Br)c2cc1OC [HI-P262, 4-(2′,6′-Dibromophenyl)-amino-6,7-dimethoxyquinazoline]
IC50 [1, 12]: > 250 µM
IC50 [2, 13]: > 250 µM
IC50 [3, 14]: > 250 µM

COc1cc2ncnc(Nc3cc(Br)c(C)c(Br)c3)c2cc1OC [HI-P212, 4-(3′,5′-Dibromo-4′-methylphenyl)-amino-6,7-dimethoxyquinazoline]
IC50 [1, 12]: 52.7 µM
IC50 [2, 13]: 54.5 µM
IC50 [3, 14]: > 250 µM

COc1cc2ncnc(Nc3cc(Cl)ccc3O)c2cc1OC [HI-P93, 4-(3′-Chlooro-6′-hydroxylphenyl)amino-6,7-dimethoxyquinazoline]
IC50 [1, 16]: > 250 µM
IC50 [1, 6]: > 250 µM
IC50 [2, 17]: > 250 µM
IC50 [2, 8]: > 250 µM
IC50 [3, 18]: > 250 µM
IC50 [3, 10]: > 250 µM
IC50 [4, 15]: > 250 µM

COc1cc2ncnc(Nc3ccccc3Cl)c2cc1OC [HI-P268, 4-(2′-Chlorophenyl)-amino-6,7-dimethoxyquinazoline]
IC50 [1, 16]: 215 µM
IC50 [2, 17]: 227 µM
IC50 [3, 18]: 122 µM

COc1cc2ncnc(Nc3ccc(O)c(I)c3)c2cc1OC [HI-P299, 4-(4′-Hydroxy-3′-iodophenyl)-amino-6,7-dimethoxyquinazoline]
IC50 [1, 5]: 15.4 µM
IC50 [1, 6]: 66.3 µM
IC50 [2, 7]: 60.1 µM
IC50 [2, 8]: 51.2 µM
IC50 [3, 9]: > 250 µM
IC50 [3, 10]: > 250 µM
IC50 [4, 11]: > 250 µM
IC50 ([4]; Table 4, OH substituted): > 250 µM

COc1cc2ncnc(Nc3ccccc3I)c2cc1OC [HI-P270, 4-(2′-Iodophenyl)-amino-6,7-dimethoxyquinazoline]
IC50 [1, 5]: > 250 µM
IC50 [2, 7]: 78.9 µM
IC50 [3, 9]: > 250 µM
IC50 [4, 11]: > 250 µM

COc1cc2ncnc(Nc3cccc(Cl)c3)c2cc1OC [HI-P87, 4-(3′-Chlorophenyl)-amino-6,7-dimethoxyquinazoline]
IC50 [1, 16]: 95.9 µM
IC50 [2, 17]: > 105 µM
IC50 [3, 18]: > 250 µM

COc1cc2ncnc(Nc3cc(Br)c(C)cc3Br)c2cc1OC [HI-P211, 4-(2′,5′-Dibromo-4′-methylphenyl)-amino-6,7-dimethoxyquinazoline]
IC50 [1, 12]: > 250 µM
IC50 [2, 13]: > 250 µM
IC50 [3, 14]: > 250 µM

COc1cc2ncnc(Nc3cc(Br)c(O)c(Br)c3)c2cc1OC [HI-P97, 4-(3′,5′-Dibromo-4′-hydroxylphenyl)-amino-6,7-dimethoxyquinazoline]
IC50 [1, 12]: > 250 µM
IC50 ([1]; Table 4, OH substituted): > 250 µM
IC50 [2, 13]: > 250 µM
IC50 ([2]; Table 4, OH substituted): > 250 µM
IC50 [3, 14]: 26.1 µM
IC50 [4, 15]: 161 µM

COc1cc2ncnc(Nc3ccc(O)c(Cl)c3)c2cc1OC [HI-P197, 4-(3′-Chloro-4′-hydroxylphenyl)-amino-6,7-dimethoxyquinazoline]
IC50 [1, 16]: 39.3 µM
IC50 [1, 6]: 68.5 µM
IC50 [2, 17]: 68 µM
IC50 [2, 8]: 63.8 µM
IC50 [3, 18]: 137 µM
IC50 [3, 10]: 71.5 µM
IC50 [4, 15]: > 250 µM

COc1cc2ncnc(Nc3ccc(Br)cc3CO)c2cc1OC [HI-P190, 4-(4′-Bromo-6′-hydroxymethylphenyl)-amino-6,7-dimethoxyquinazoline]
IC50 [1, 12]: > 250 µM
IC50 [1, 6]: > 250 µM
IC50 [2, 13]: > 250 µM
IC50 [2, 8]: > 250 µM
IC50 [3, 14]: > 250 µM
IC50 [3, 10]: > 250 µM
IC50 [4, 15]: > 250 µM

COc1cc2ncnc(Nc3ccc4c(c3)Cc3cc(Br)ccc3-4)c2cc1OC [HI-P160, 4-[(7′-Bromofluorene)-2′]-amino-6,7-dimethoxyquinazoline]
IC50 [1, 12]: 135 µM
IC50 [2, 13]: 241 µM
IC50 [3, 14]: 25.5 µM

COc1cc2ncnc(Nc3ccc(C)c(Br)c3Br)c2cc1OC [HI-P210, 4-(2′,3′-Dibromo-4′-methylphenyl)-amino-6,7-dimethoxyquinazoline]
IC50 [1, 12]: > 250 µM
IC50 [2, 13]: > 250 µM
IC50 [3, 14]: > 250 µM

COc1cc2ncnc(Nc3ccc(Cl)cc3)c2cc1OC [HI-P269, 4-(4′-Chlorophenyl)-amino-6,7-dimethoxyquinazoline]
IC50 [1, 16]: > 250 µM
IC50 [2, 17]: > 250 µM
IC50 [3, 18]: > 250 µM

COc1cc2ncnc(Nc3ccc(C)cc3)c2cc1OC [HI-P234]
IC50 [1, 12]: > 250 µM
IC50 [2, 13]: > 250 µM
IC50 [3, 14]: > 250 µM

COc1cc2ncnc(Nc3ccc(Br)cc3)c2cc1OC [HI-P260, 4-(4′-Bromophenyl)-amino-6,7-dimethoxyquinazoline]
IC50 [1, 12]: 32.4 µM
IC50 [2, 13]: 51.3 µM
IC50 [3, 14]: 82.1 µM

COc1cc2ncnc(Nc3c(Br)cc(Br)cc3Br)c2cc1OC [HI-P222, 4-(2′, 4′, 6′-Tribromophenyl)amino-6,7-dimethoxyquinazoline]
IC50 [1, 12]: 34 µM
IC50 [2, 13]: 48.3 µM
IC50 [3, 14]: > 250 µM
